Values of other authors in patent EP4257117A1, “SUSTAINED-RELEASE PHARMACEUTICAL COMPOSITION OF FULVESTRANT AND METHOD FOR PREPARING SAME” (Samyang Holdings Corporation, priority 2020, dated 2022).
Like-named read-outs stand apart in the source and are kept apart here.

What was measured:
[1] = according to the prescription of Faslodex Injection
[2] = in pure water, according to FDA data

C[C@]12CC[C@@H]3c4ccc(O)cc4C[C@@H](CCCCCCCCC[S+]([O-])CCCC(F)(F)C(F)(F)F)[C@H]3[C@@H]1CC[C@@H]2O (stereo partly drawn) [Fulvestrant, 7-alpha-[9-(4,4,5,5,5-pentafluoropentylsulphinyl)nonyl]estra-1,3,5-(10)-triene-3,17beta-diol]
saturation solubility of Fulvestrant ([1]; at room temperature): about 90 mg/mL | saturation solubility of Fulvestrant ([1]; in refrigerated storage): about 65 mg/mL | solubility in aqueous solution [2]: practically insoluble
